{"source": "patent US11845084B2", "about": "“Microchip high density hanging drop three-dimension culture platform” (The Board of Trustees of the University of Illinois, priority 2020, dated 2023)", "key": {"[1]": {"test_system": "LN229 microcancer spheroids", "test": "On-chip drug testing of LN229 microcancer spheroids in microchip hanging drop 3D culture", "assay_type": "cell-based", "conditions": "Homo sapiens, LN-229; measured on day 9 post cell seeding; drug loaded on day 3; 500 cells/well; 12 wells per concentration, 10 uM to 100 pM", "description": "In contrast, conventional hanging drop methods used to extract the formed tumor spheroids and then performing an end-point only analysis in a separate well plate. Dasatinib was selected for drug testing, and introduced after 3 days of culture in the chip. […] One process for introducing the drugs on chip is as follows. The chip was kept upright inside mineral oil and centrifuged briefly to bring down the spheroids. Next, appropriate volume of media with drugs is loaded on chip through oil and incubated for 30 minutes to reach a homogeneous concentration. […] The chip was partitioned as before by using oil, inverted, and daily measurements of green and red fluorescence were taken. […]\nThe total number of cells were extracted from the off-chip culture into a 1.7 mL tube and then centrifuged at 200 g for 5 min so that all cells settle to the bottom of the tube. […] To stop the PKH 26 Red Fluorescence staining, media with FBS was added to the cell and dye solution. […]\nSpheroid Imaging: Real time imaging was done daily after seeding with an upright Olympus BX63 fluorescence microscope with a 10× objective (0.3 NA). […] Tiles and Z-stacks of 10 um slice thickness of the area with spheroids or shapes were taken of chips in bright-field, GFP and RFP fluorescence wavelengths. The CellTox green fluorescence dye was captured using the GFP fluorescence and the PKH Red dye was captured using the RFP. […]"}, "[2]": {"test_system": "PDX microcancers (GBM8 patient-derived xenograft glioblastoma cells)", "test": "On-chip drug testing of PDX microcancer spheroids in microchip hanging drop 3D culture", "assay_type": "cell-based", "conditions": "Homo sapiens; measured on day 9 post cell seeding; drug loaded on day 3; 500 cells/well; 12 wells per concentration, 10 uM to 100 pM", "experimental": "The harvest cells from the xenograft represented the cellular diversity of the PDX brain tumor.\nDasatinib was selected for drug testing, and introduced after 3 days of culture in the chip. […] One process for introducing the drugs on chip is as follows. The chip was kept upright inside mineral oil and centrifuged briefly to bring down the spheroids. Next, appropriate volume of media with drugs is loaded on chip through oil and incubated for 30 minutes to reach a homogeneous concentration. The volume of drugs loaded depends on the number of spheroids being cultured or wells filled with media on chip, which in turn, are defined by the size and numbers of PDMS reservoirs initially used for cell seeding. The volume of media with drugs added is usually 5 times the volume of wells containing spheroids. […] The chip was partitioned as before by using oil, inverted, and daily measurements of green and red fluorescence were taken."}}}
{"smiles": "Cc1nc(Nc2ncc(C(=O)Nc3c(C)cccc3Cl)s2)cc(N2CCN(CCO)CC2)n1", "note": "[Dasatinib]", "values": [{"measurement": "IC50", "setting": "[1]", "result": 95.9, "unit": "nM"}, {"measurement": "IC50", "setting": "[2]", "result": 13.8, "unit": "nM"}]}
